Assays:
[1] = test system: P. falciparum 3D7; assay: P. falciparum dose-response growth inhibition assay (FACS, SYTO 11); type: cell-based; conditions: P. falciparum 3D7, 48 h, mean (SD)
Method: Apicomplexan parasite cultures were maintained at 3% hematocrit under an atmosphere of 37 °C in 93% N2, 5% CO2, and 2% O2, following standard methods. Synchronized cultures were obtained via 5% sorbitol lysis.
P. falciparum growth was primarily analyzed under 3 different concentrations ([…]) of the 81 compounds. Conditions were tested in triplicate for every concentration, and the test was repeated when the standard deviation was above 10% for any concentration. Z-values varied between 0.83 and 0.98 in the different plates analyzed. Selected compounds (12.3% potential hit rate) were further analyzed via standard growth inhibition assays, carried out as previously described in [54]. Briefly, parasitemia was adjusted to 1–1.3%, with >90% rings after sorbitol synchronization. Two hundred microliters of parasite culture were plated in 96-well microplates and incubated for 48 h at 37 °C in the presence of decreasing concentrations of the tested compounds, in triplicate. Parasitemia was determined by fluorescence-assisted cell sorting (FACS). Non-infected RBCs and samples containing parasitized RBCs (including controls with DMSO as carrier solvent) were diluted in PBS to a final concentration of ~1–10 × 10^6 cells/mL. The cell suspension was stained with SYTO 11 (0.5 mM stock in DMSO, Thermo Fisher Scientific, Waltham, MA, USA), to a final concentration of 0.5 μM. Samples were analyzed in a Becton Dickinson FACSCalibur. Sample excitation was carried out using a 488-nm, air-cooled argon-ion laser at a power of 15 mW, using forward and side scatter to gate the RBC population, and SYTO 11 green fluorescence (530 nm, FITC filter) was collected in a logarithmic scale. The single-cell population was selected on a forward–side scattergram, and the green fluorescence from this population was analyzed. Parasitemia was expressed as the number of parasitized cells per 100 erythrocytes.
(§1) Absorbance values derived from the anti-T. cruzi assays and fluorescence values from the anti-P. falciparum and cell toxicity assays were normalized to the controls. In the primary screening at three fixed doses, the compounds’ inhibitory activity was expressed as a percentage of the negative control (100% parasitic growth). In dose–response assays, the compounds’ IC50 and TC50 values were determined with GraphPad Prism 7 software (version 7.00, 2016), using a non-linear regression analysis model defined by the following equation: Y=100 ÷(1+10^((LogIC50−X)×HillSlope))

[2] = test system: T. cruzi Tulahuen strain expressing β-galactosidase; assay: T. cruzi primary screening at three fixed concentrations; type: cell-based
Method: T. cruzi parasites from the Tulahuen strain (discrete typing unit (DTU) VI) expressing β-galactosidase were maintained in culture by the infection of LLC-MK2 cells in DMEM supplemented with 2% FBS and 1% penicillin–streptomycin–glutamine (PSG), as described in [52]. When free-swimming trypomastigotes were released to the culture medium, they were centrifuged for 7 min at 2500 rpm and allowed to swim out of the pellet. Trypomastigotes were used to maintain the parasite cycle, or for the performance of the antiparasitic assays.
[…] Conditions were tested in triplicate for every concentration. Z-values varied between 0.81 and 0.92 in the different plates analyzed. Selected compounds (34.6% potential hit rate) were further analyzed via standard growth inhibition assays. The Z-values of dose–response assays correlated with those previously reported. For both assays, Vero cells and trypomastigotes from the Tulahuen T. cruzi strain expressing β-galactosidase were harvested, centrifuged, and resuspended in DMEM without phenol red supplemented with 1% PSG, 2% FBS, 1 mM sodium pyruvate, and 25 mM HEPES. Vero cells and trypomastigotes were counted, diluted at a concentration of 1 × 10^6 cells/mL each, and mixed 1:1 (v/v). Then, 100 μL of that mixture was added per well to the plates already containing the compounds. Each well contained 50,000 host cells and 50,000 parasites, i.e., multiplicity of infection (MOI) = 1. BNZ was used as control of maximal drug growth inhibition in each round, whereas each plate contained its own negative control (maximum parasite growth; Vero cells plus parasites without drugs) and positive control (minimum parasite growth; trypomastigote forms alone marking an enzymatic zero time or baseline galactosidase activity). After four days at 37 °C, 50 µL of a PBS solution containing 0.25% NP40 and 500 µM chlorophenol red-β-D-galactopyranoside (CPRG) substrate were added per well [32]. Plates were incubated at 37 °C for 4 h, and their absorbance read out at 590 nm using an Epoch Gene5 spectrophotometer.
as §1

[3] = test system: HepG2 cells; assay: HepG2 cell toxicity assay (alamarBlue); type: cell-based, human; conditions: 2 days; minimum value of the 95% CI, except BNZ (mean (SD))
Method: Human erythrocytes were purified from B+ Rh+ blood samples and maintained at 4 °C in incomplete RPMI medium. Vero (green monkey kidney epithelial cells), LLC-MK2 (Rhesus monkey kidney epithelial cells), and HepG2 (human liver epithelial cells) cultures were cultivated in DMEM supplemented with 1% penicillin–streptomycin (PS) and 10% heat-inactivated fetal bovine serum (FBS) at 37 °C, 5% CO2, and >95% humidity, as described in [31]. HepG2 cells were also supplemented with 10% non-essential amino acids. Vero and MK2 cells were passaged twice per week at 1:12 ratios, while HepG2 cells were passaged at a 1:8 ratio.
Vero and HepG2 cells were detached, centrifuged, and resuspended in DMEM without phenol red. Cell viability was checked upon cell counting with trypan blue staining. Then, Vero and HepG2 cells were diluted at a concentration of 5 × 10^5 and 3.2 × 10^5 cells per mL, respectively, before adding 100 µL per well to the 96-well plate. Each run contained its own negative (untreated cells) and positive (medium alone) controls. Plates were incubated at 37 °C for 4 days in the case of Vero, or 2 in the case of HepG2 cells. Assay readout was made by adding 50 µL per well of a PBS solution containing 10% alamarBlue reagent (Thermo Fisher Scientific); then, plates were incubated for another 6 h at 37 °C, before recording the fluorescence intensity with a Tecan Infinite M Nano+ reader (excitation: 530 nm, emission: 590 nm).
as §1

[4] = compound at 10 µM, average of at least three independent experiments

Row | SMILES | IC50 ([1]; Plasmodium falciparum, 3D7, 48 h) [µM] | Primary screening, growth inhibition values at 10 µM [2, 4] | HepG2 Cells TC50 [3] [µM] | IC50 [1] [µM] | activity at 100 µM ([2]; Trypanosoma cruzi, TULAHUEN, read-out: Primary screening, growth inhibition values at 100 µM) [%] | activity at 1 µM ([2]; Trypanosoma cruzi, TULAHUEN, compound at 1 µM, average of at least three independent experiments, read-out: Primary screening, growth inhibition values at 1 µM) [%] | activity at 10 µM ([2]; Trypanosoma cruzi, TULAHUEN, compound at 10 µM, average of at least three independent experiments, read-out: Primary screening, growth inhibition values at 10 µM) [%]
1 | CC(C)(C)n1c(-c2ccccc2)nc2c(OCc3ccccc3)ncnc21 [Compound 6D] | 18.9 | 84.14 | >200 | – | – | – | –
2 | c1ccc(CCn2c(-c3ccccc3)nc3c(OCc4ccccc4)ncnc32)cc1 [Compound 6g] | – | 87.76 | >300 | 19.1 | – | – | –
3 | COC(=O)c1ccccc1-n1cc(COc2ncnc3c2nc(-c2ccccc2)n3N(C)C)nn1 [Compound 34] | – | – | – | – | 13.9 | 68 | 66.9
